# From ChEMBL document CHEMBL1909046, “DrugMatrix in vitro pharmacology data”
# Biological target: Tyrosine-protein kinase Fyn (Homo sapiens, UniProt P06241);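 further: enzymatic inhibition of Fyn kinase activity measured with Poly(Glu:Tyr) as the phosphorylation substrate; in other assays of this panel Not Active means under 50% inhibition at 10 µM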
# Assay: biochemical
# Format: cell-based, Insect cells
# Details: insect cells
# Sequence of Tyrosine-protein kinase Fyn (P06241 whole entry): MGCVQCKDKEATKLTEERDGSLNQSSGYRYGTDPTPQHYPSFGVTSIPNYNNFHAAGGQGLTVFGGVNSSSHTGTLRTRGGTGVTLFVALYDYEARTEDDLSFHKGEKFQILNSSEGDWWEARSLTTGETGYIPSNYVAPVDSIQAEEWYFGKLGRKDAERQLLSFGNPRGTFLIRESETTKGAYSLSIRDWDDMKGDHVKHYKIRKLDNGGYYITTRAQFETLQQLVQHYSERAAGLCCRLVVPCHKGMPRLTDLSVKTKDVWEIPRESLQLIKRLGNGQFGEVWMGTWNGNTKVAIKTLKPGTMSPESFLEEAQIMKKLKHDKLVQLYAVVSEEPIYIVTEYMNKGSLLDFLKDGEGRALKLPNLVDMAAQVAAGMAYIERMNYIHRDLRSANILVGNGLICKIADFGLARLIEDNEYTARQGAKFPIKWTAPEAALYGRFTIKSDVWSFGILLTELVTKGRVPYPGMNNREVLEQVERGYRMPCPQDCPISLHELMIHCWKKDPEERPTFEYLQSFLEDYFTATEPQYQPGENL
row,Structure (SMILES),IC50
1,CC(N)Cc1c[nH]c2ccc(OCc3cccs3)cc12 (centres undefined) [BW-723C86],Not Active
2,CCCCCCNC(=O)n1cc(F)c(=O)[nH]c1=O [CARMOFUR],Not Active
3,Cc1cc(C(C)(C)C)c(O)c(C)c1CC1=NCCN1 [OXYMETAZOLINE],Not Active
4,O=c1[nH]c2ccccc2c2ccccc12,Not Active
5,"O=C(Nc1ccc(Cl)c(Cl)c1)c1cc(Cl)cc(Cl)c1O [3,3',4',5-TETRACHLOROSALICYLANILIDE]",Not Active
6,CC(=O)Nc1ccc2c(c1)Cc1ccccc1-2 [2-ACETYLAMINOFLUORENE],Not Active
7,Oc1ncnc2[nH]ncc12 [ALLOPURINOL],Not Active

# System: not listed separately
# Assay: DRUGMATRIX: GABAA, Muscimol, Central radioligand binding (ligand: [3H] Muscimol)
# Format: cell membranes, Rattus norvegicus, Wistar, Brain, Membrane
# Details: Not Active = under 50% inhibition at 10 µM
Structure (SMILES),IC50,Ki
CC(N)Cc1c[nH]c2ccc(OCc3cccs3)cc12 (centres undefined) [BW-723C86],Not Active,Not Active
CCCCCCNC(=O)n1cc(F)c(=O)[nH]c1=O [CARMOFUR],Not Active,Not Active
Cc1cc(C(C)(C)C)c(O)c(C)c1CC1=NCCN1 [OXYMETAZOLINE],Not Active,Not Active
O=c1[nH]c2ccccc2c2ccccc12,Not Active,Not Active
"O=C(Nc1ccc(Cl)c(Cl)c1)c1cc(Cl)cc(Cl)c1O [3,3',4',5-TETRACHLOROSALICYLANILIDE]",Not Active,Not Active
CC(=O)Nc1ccc2c(c1)Cc1ccccc1-2 [2-ACETYLAMINOFLUORENE],Not Active,Not Active
Oc1ncnc2[nH]ncc12 [ALLOPURINOL],Not Active,Not Active

# Biological target: T1, Glucocorticoid receptor (Homo sapiens, UniProt P04150); further: in other assays of this panel Not Active means under 50% inhibition at 10 µM
# T1 sequence (P04150 whole entry): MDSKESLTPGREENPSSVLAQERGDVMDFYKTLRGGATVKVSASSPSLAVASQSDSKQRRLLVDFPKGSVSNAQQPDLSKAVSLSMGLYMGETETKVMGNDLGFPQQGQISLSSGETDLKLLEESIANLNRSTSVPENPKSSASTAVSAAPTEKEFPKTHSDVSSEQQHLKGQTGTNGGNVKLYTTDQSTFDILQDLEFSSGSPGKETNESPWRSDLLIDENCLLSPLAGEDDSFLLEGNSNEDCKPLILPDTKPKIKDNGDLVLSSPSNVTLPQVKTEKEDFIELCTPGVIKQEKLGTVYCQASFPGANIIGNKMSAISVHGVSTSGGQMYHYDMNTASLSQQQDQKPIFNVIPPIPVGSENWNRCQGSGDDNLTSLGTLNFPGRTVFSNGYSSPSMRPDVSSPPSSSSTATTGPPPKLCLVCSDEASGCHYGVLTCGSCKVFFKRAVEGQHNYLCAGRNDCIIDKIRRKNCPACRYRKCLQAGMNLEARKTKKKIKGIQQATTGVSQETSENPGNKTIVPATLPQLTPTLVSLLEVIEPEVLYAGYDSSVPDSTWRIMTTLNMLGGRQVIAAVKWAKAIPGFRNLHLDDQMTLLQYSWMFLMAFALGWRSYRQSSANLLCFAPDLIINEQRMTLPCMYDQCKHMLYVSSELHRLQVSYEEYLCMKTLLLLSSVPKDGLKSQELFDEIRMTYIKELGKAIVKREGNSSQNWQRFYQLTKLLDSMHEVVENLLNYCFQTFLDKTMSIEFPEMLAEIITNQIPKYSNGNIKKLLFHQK
# Assay: not given
# Details: hela s3
row,Structure (SMILES),IC50
1,CC(N)Cc1c[nH]c2ccc(OCc3cccs3)cc12 (centres undefined) [BW-723C86],Not Active
2,CCCCCCNC(=O)n1cc(F)c(=O)[nH]c1=O [CARMOFUR],Not Active
3,Cc1cc(C(C)(C)C)c(O)c(C)c1CC1=NCCN1 [OXYMETAZOLINE],Not Active
4,O=c1[nH]c2ccccc2c2ccccc12,Not Active
5,"O=C(Nc1ccc(Cl)c(Cl)c1)c1cc(Cl)cc(Cl)c1O [3,3',4',5-TETRACHLOROSALICYLANILIDE]",Not Active
6,CC(=O)Nc1ccc2c(c1)Cc1ccccc1-2 [2-ACETYLAMINOFLUORENE],Not Active
7,Oc1ncnc2[nH]ncc12 [ALLOPURINOL],Not Active

# Biological target: Glycine receptor (Rattus norvegicus, UniProt P22771+P24524+P07727+P20781); further: in other assays of this panel Not Active means under 50% inhibition at 10 µM
# Assay: not given
# Format: cell membranes, Wistar, Spinal cord, Membrane
# Details: not given
row,Structure (SMILES),IC50
1,CC(N)Cc1c[nH]c2ccc(OCc3cccs3)cc12 (centres undefined) [BW-723C86],Not Active
2,CCCCCCNC(=O)n1cc(F)c(=O)[nH]c1=O [CARMOFUR],Not Active
3,Cc1cc(C(C)(C)C)c(O)c(C)c1CC1=NCCN1 [OXYMETAZOLINE],Not Active
4,O=c1[nH]c2ccccc2c2ccccc12,Not Active
5,"O=C(Nc1ccc(Cl)c(Cl)c1)c1cc(Cl)cc(Cl)c1O [3,3',4',5-TETRACHLOROSALICYLANILIDE]",Not Active
6,CC(=O)Nc1ccc2c(c1)Cc1ccccc1-2 [2-ACETYLAMINOFLUORENE],Not Active
7,Oc1ncnc2[nH]ncc12 [ALLOPURINOL],Not Active

# Biological target: T2, Neutrophil elastase (Homo sapiens, UniProt P08246);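 further: inhibition of neutrophil elastase enzyme activity, measured with a p-nitroanilide-linked peptide substrate; in other assays of this panel Not Active means under 50% inhibition at 10 µM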
# T2 sequence (P08246 whole entry): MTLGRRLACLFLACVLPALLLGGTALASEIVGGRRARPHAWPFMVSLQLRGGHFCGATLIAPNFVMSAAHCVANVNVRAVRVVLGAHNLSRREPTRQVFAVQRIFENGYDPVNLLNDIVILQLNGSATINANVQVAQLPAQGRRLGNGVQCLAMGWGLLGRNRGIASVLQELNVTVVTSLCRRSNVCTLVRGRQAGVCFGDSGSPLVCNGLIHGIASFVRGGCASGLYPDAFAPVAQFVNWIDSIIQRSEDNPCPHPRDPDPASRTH
# Assay: not given
# Format: tissue-based
# Details: not given
row,Structure (SMILES),IC50
1,CC(N)Cc1c[nH]c2ccc(OCc3cccs3)cc12 (centres undefined) [BW-723C86],Not Active
2,CCCCCCNC(=O)n1cc(F)c(=O)[nH]c1=O [CARMOFUR],Not Active
3,Cc1cc(C(C)(C)C)c(O)c(C)c1CC1=NCCN1 [OXYMETAZOLINE],Not Active
4,O=c1[nH]c2ccccc2c2ccccc12,Not Active
5,"O=C(Nc1ccc(Cl)c(Cl)c1)c1cc(Cl)cc(Cl)c1O [3,3',4',5-TETRACHLOROSALICYLANILIDE]",Not Active
6,CC(=O)Nc1ccc2c(c1)Cc1ccccc1-2 [2-ACETYLAMINOFLUORENE],Not Active
7,Oc1ncnc2[nH]ncc12 [ALLOPURINOL],Not Active

# Biological target: Kappa-type opioid receptor (Homo sapiens, UniProt P41145)
# Sequence (P41145 whole entry): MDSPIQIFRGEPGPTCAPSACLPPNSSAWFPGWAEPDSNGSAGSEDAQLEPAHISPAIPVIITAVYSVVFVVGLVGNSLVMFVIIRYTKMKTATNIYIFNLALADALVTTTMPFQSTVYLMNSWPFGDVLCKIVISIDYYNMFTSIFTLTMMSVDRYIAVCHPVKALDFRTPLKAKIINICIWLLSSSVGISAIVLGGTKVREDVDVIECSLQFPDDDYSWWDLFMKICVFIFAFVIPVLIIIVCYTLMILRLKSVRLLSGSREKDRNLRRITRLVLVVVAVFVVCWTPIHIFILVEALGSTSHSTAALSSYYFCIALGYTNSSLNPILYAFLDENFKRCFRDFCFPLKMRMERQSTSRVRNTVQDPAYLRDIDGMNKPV
# Assay: DRUGMATRIX: Opiate kappa (OP2, KOP) radioligand binding (ligand: [3H] Diprenorphine)
# Format: cell membranes, HEK293, Membrane
# Details: hek293; Not Active = under 50% inhibition at 10 µM
row,Structure (SMILES),IC50
1,CC(N)Cc1c[nH]c2ccc(OCc3cccs3)cc12 (centres undefined) [BW-723C86],Not Active
2,CCCCCCNC(=O)n1cc(F)c(=O)[nH]c1=O [CARMOFUR],Not Active
3,Cc1cc(C(C)(C)C)c(O)c(C)c1CC1=NCCN1 [OXYMETAZOLINE],Not Active
4,O=c1[nH]c2ccccc2c2ccccc12,Not Active
5,"O=C(Nc1ccc(Cl)c(Cl)c1)c1cc(Cl)cc(Cl)c1O [3,3',4',5-TETRACHLOROSALICYLANILIDE]",Not Active
6,CC(=O)Nc1ccc2c(c1)Cc1ccccc1-2 [2-ACETYLAMINOFLUORENE],Not Active
7,Oc1ncnc2[nH]ncc12 [ALLOPURINOL],Not Active

# Biological target: Sodium-dependent dopamine transporter (Homo sapiens, UniProt Q01959)
# Sequence (Q01959 whole entry): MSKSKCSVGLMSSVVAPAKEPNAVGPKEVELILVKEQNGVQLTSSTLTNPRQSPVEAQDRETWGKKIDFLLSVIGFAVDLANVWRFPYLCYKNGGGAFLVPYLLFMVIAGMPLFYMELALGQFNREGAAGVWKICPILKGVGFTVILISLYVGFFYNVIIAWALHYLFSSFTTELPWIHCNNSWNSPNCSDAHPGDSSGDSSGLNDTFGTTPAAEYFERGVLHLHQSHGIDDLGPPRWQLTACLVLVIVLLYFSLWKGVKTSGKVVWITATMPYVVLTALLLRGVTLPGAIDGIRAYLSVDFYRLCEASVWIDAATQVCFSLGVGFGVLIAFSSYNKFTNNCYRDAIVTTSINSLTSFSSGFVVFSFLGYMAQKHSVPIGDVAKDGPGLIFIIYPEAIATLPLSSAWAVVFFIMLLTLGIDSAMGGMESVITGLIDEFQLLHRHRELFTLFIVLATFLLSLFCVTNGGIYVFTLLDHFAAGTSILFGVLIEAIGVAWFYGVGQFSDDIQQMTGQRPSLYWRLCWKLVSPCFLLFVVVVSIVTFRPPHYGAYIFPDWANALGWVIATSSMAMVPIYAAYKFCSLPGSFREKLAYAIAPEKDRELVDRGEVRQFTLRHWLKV
# Assay: DRUGMATRIX: Dopamine Transporter radioligand binding (ligand: [125I] RTI-55)
# Format: cell membranes, CHO-K1, Membrane
# Details: Not Active = under 50% inhibition at 10 µM; read-out: IC50
row,Structure (SMILES),IC50
1,CC(N)Cc1c[nH]c2ccc(OCc3cccs3)cc12 (centres undefined) [BW-723C86],2680 nM

# Same assay, conditions: Not Active = under 50% inhibition at 10 µM; read-out: Ki
row,Structure (SMILES),Ki
1,CC(N)Cc1c[nH]c2ccc(OCc3cccs3)cc12 (centres undefined) [BW-723C86],2130 nM

# Same assay, conditions: cho-k1; Not Active = under 50% inhibition at 10 µM
row,Structure (SMILES),IC50
1,CCCCCCNC(=O)n1cc(F)c(=O)[nH]c1=O [CARMOFUR],Not Active
2,Cc1cc(C(C)(C)C)c(O)c(C)c1CC1=NCCN1 [OXYMETAZOLINE],Not Active
3,O=c1[nH]c2ccccc2c2ccccc12,Not Active
4,"O=C(Nc1ccc(Cl)c(Cl)c1)c1cc(Cl)cc(Cl)c1O [3,3',4',5-TETRACHLOROSALICYLANILIDE]",Not Active
5,CC(=O)Nc1ccc2c(c1)Cc1ccccc1-2 [2-ACETYLAMINOFLUORENE],Not Active
6,Oc1ncnc2[nH]ncc12 [ALLOPURINOL],Not Active

# Biological target: Estrogen receptor beta (Homo sapiens, UniProt Q92731); further: in other assays of this panel Not Active means under 50% inhibition at 10 µM
# Sequence (Q92731 whole entry): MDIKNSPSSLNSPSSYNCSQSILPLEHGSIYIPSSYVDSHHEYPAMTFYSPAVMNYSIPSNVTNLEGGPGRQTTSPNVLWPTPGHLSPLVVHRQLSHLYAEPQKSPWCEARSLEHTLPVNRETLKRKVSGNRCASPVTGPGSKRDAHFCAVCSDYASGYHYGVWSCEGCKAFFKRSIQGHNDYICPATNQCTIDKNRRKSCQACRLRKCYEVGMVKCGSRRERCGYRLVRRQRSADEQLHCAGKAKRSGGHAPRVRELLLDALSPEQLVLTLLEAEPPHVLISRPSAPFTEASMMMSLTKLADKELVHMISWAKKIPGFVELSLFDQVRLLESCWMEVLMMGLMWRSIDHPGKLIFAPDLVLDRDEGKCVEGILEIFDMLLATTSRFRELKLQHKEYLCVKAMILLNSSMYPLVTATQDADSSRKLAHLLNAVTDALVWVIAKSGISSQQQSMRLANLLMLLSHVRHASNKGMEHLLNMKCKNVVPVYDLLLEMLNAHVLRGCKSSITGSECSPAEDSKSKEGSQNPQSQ
# Assay: not given
# Details: sf9
row,Structure (SMILES),IC50
1,CC(N)Cc1c[nH]c2ccc(OCc3cccs3)cc12 (centres undefined) [BW-723C86],Not Active
2,CCCCCCNC(=O)n1cc(F)c(=O)[nH]c1=O [CARMOFUR],Not Active
3,Cc1cc(C(C)(C)C)c(O)c(C)c1CC1=NCCN1 [OXYMETAZOLINE],Not Active
4,O=c1[nH]c2ccccc2c2ccccc12,Not Active
5,"O=C(Nc1ccc(Cl)c(Cl)c1)c1cc(Cl)cc(Cl)c1O [3,3',4',5-TETRACHLOROSALICYLANILIDE]",Not Active
6,CC(=O)Nc1ccc2c(c1)Cc1ccccc1-2 [2-ACETYLAMINOFLUORENE],Not Active
7,Oc1ncnc2[nH]ncc12 [ALLOPURINOL],Not Active
